Article PMC12154458, “High-Throughput Screens of Repurposing Hub and DOS Chemical Libraries Reveal Compounds with Novel and Potent Inhibitory Activity Against the Essential Non-Neuronal Acetylcholinesterase of Schistosoma mansoni (SmTAChE)” (International Journal of Molecular Sciences, 2025)
Where two headings read alike, the source gives them in different places.

Assays:
rSmTAChE [1] = biological target: T1, rSmTAChE (Schistosoma mansoni, UniProt A0A3Q0KMM5); assay type: biochemical;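 on Inhibition (%) (Average): mostly 20 µM final but a few compounds at 5 or 10 µM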;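 on Inhibition (%) Replicate A: mostly 20 µM final but a few compounds at 5 or 10 µM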;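 on Inhibition (%) Replicate B: mostly 20 µM final but a few compounds at 5 or 10 µM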
[2] = biological target: recombinant human acetylcholinesterase, rHsAChE (Homo sapiens, UniProt P22303); assay: biochemical; details: for IC50: read-out: qAC50 (IC50), rHsAChE
rSmTAChE [3] = biological target: T1, rSmTAChE; assay: biochemical
[4] = read-out: qAC50 (IC50), rSmTAChE

Sequence of recombinant human acetylcholinesterase, rHsAChE (P22303 32-614): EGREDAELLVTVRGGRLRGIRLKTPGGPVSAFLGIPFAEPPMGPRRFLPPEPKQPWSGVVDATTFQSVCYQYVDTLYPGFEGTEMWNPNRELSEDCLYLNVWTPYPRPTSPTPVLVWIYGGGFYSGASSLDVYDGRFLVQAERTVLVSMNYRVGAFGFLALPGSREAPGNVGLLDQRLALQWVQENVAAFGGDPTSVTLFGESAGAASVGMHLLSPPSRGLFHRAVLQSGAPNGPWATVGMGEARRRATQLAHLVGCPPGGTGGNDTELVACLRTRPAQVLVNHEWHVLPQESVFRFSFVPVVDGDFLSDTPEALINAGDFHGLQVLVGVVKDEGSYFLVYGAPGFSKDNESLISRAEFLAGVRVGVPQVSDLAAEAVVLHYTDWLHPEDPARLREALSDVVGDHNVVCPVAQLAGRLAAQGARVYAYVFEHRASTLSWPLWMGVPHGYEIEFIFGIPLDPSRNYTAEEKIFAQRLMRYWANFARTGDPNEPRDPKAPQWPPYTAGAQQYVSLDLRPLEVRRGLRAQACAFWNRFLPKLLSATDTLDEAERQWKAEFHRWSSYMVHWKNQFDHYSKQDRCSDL
T1 sequence (A0A3Q0KMM5 27-661 limits assumed): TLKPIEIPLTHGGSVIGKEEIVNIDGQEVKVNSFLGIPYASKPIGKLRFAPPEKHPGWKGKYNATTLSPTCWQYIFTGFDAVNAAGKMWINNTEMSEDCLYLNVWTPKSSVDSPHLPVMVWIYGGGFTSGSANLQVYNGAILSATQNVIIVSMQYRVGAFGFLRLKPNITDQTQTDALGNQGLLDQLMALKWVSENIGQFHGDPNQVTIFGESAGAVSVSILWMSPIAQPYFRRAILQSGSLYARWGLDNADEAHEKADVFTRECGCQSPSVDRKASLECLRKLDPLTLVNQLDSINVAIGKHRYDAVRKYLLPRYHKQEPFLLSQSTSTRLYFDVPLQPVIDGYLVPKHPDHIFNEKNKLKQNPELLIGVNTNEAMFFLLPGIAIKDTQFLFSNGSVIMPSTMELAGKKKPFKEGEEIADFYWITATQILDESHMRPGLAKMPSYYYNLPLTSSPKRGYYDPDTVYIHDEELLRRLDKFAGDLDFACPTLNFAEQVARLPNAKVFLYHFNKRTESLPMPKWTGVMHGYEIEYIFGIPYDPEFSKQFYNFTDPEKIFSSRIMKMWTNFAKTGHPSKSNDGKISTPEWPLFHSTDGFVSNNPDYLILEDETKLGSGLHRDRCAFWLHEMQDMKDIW

Structure (SMILES) | Data Mode (curve class), rSmTAChE (rSmTAChE [1]) | IC50 (rSmTAChE [1]; [4]) [µM] | Data Mode (curve class), rHsAChE [2] | IC50 [2] [µM] | Inhibition (%) (Average) (rSmTAChE [3]) | Inhibition (%) Replicate A (rSmTAChE [3]) [%] | Inhibition (%) Replicate B (rSmTAChE [3]) [%] | rSmTAChE Data Mode (rSmTAChE [1]) | rHsAChE Data Mode [2] | IC50 (rSmTAChE [1]; read-out: rSmTAChE qAC50) [µM]
O=C(O)c1ccccc1Nc1ccc(CCc2ccc(Cl)c(Cl)c2)cc1 [BRD-K34657753-001-01-9] | decreasing | 12.4 | decreasing | 8.55 | 82.51 | 83.46 | 81.56 |  |  | 
C[C@H](NC(=O)C(C)(C)Oc1ccc(C(F)(F)F)cn1)[C@@H](Cc1ccc(Cl)cc1)c1cccc(C#N)c1 [BRD-K35169477-001-01-9] | inactive |  | decreasing (weakly active) | > 13.5 | 62.68 | 60.97 | 64.40 |  |  | 
CCCC(=O)Nc1ccc2c(c1)OC[C@@H](C)N(Cc1cc(-c3ccccc3)on1)C[C@@H](C)[C@H](OC)CN(C)C2=O [BRD-K35965314-001-01-7] |  |  |  |  | 67.01 | 68.51 | 65.51 | inactive | inactive | 
CC(C)n1cnc2c(NCCc3ccc(O)cc3)nc(-c3csc4ccccc34)nc21 [BRD-K36739687-001-03-0] | inactive |  | inactive |  | 68.06 | 70.28 | 65.85 |  |  | 
O=C(C[C@@H]1C[C@@H]2c3cc(NC(=O)NC4CCCC4)ccc3O[C@@H]2[C@H](CO)O1)NCc1ccc(Cl)cc1 [BRD-K38240817-001-01-4] |  |  |  |  | 84.65 | 85.52 | 83.79 | decreasing (weakly active) | decreasing (weakly active) | 
Cc1nc2sccn2c(=O)c1CCN1CCC(=C(c2ccc(F)cc2)c2ccc(F)cc2)CC1 [BRD-K40887525-001-23-5] | decreasing (weakly active) | > 19.5 | decreasing | 10.9 | 80.73 | 82.03 | 79.42 |  |  | 
CCOC(=O)C1=C(C)NC(C)=C(C(=O)OCC)C1c1ccccc1/C=C/C(=O)OC(C)(C)C [BRD-K43586850-001-02-9] | inactive |  | inactive |  | 95.79 | 92.71 | 98.87 |  |  | 
COCCOc1ccc2c(c1)ncn2-c1ccc2cccc(N3CCC(N)CC3)c2n1 [BRD-K43621685-001-03-3] | decreasing (weakly active) | > 38 | decreasing | 20.7 | 79.32 | 80.31 | 78.32 |  |  | 
CC#C[C@@H](CC(=O)O)c1ccc(OCc2cccc(-c3ccc(C(F)(F)F)cc3)c2)cc1 [BRD-K43802723-340-01-9] | decreasing | 13.4 | decreasing | 15.4 | 79.76 | 80.42 | 79.10 |  |  | 
O=C(C[C@@H]1C=C[C@@H](NC(=O)c2ccncc2)[C@H](CO)O1)Nc1ccc(-c2ccccc2)cc1 [BRD-K45095313-001-01-2] |  |  |  |  | 61.11 | 60.65 | 61.57 | inactive | inactive | 
COc1ccc(NC(=O)Nc2ccc3c(c2)[C@H]2C[C@@H](CC(=O)NCc4ccccn4)O[C@@H](CO)[C@H]2O3)cc1 [BRD-K46319090-001-01-4] |  |  |  |  | 89.33 | 88.58 | 90.08 | decreasing | inactive | 37.8
